Laboratory results published in PubChem BioAssay AID1919006 (Molecular Pharmacology Branch, DTP, NCI, 2023).

Tested on: 885512-296-R-J2-PDC complex spheroid growth, % test/control
Experiment: Anticancer human tumor 885512-296-R-J2-PDC patient-derived breast carcinoma cell line growth inhibition [AhR]
Details: for IC50: curve of first compound; for viability, T/C: stronger effect = lower value
Procedure, shortened: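 Agents were dosed in half-log steps down from roughly clinical Cmax, or from 10 microM where Cmax was unknown, alone and with AhR antagonists. Read-out: percent test/control growth of tumor spheroids containing HUVEC and MSC stromal cells.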

[1] = second compound 0.1 µM, first compound 0.000949 µM
[2] = second compound 0.1 µM, first compound 0.003 µM
[3] = second compound 0.1 µM, first compound 0.00949 µM
[4] = second compound 0.1 µM, first compound 0.03 µM
[5] = second compound 0.1 µM, first compound 0.0949 µM
[6] = second compound 0.1 µM, first compound 0.3 µM
[7] = second compound 0.316 µM, first compound 0.000949 µM
[8] = second compound 0.316 µM, first compound 0.003 µM
[9] = second compound 0.316 µM, first compound 0.00949 µM
[10] = second compound 0.316 µM, first compound 0.03 µM
[11] = second compound 0.316 µM, first compound 0.0949 µM
[12] = second compound 0.316 µM, first compound 0.3 µM
[13] = second compound 1 µM, first compound 0.000949 µM
[14] = second compound 1 µM, first compound 0.003 µM
[15] = second compound 1 µM, first compound 0.00949 µM
[16] = second compound 1 µM, first compound 0.03 µM
[17] = second compound 1 µM, first compound 0.0949 µM
[18] = second compound 1 µM, first compound 0.3 µM
[19] = second compound 3.16 µM, first compound 0.000949 µM
[20] = second compound 3.16 µM, first compound 0.003 µM
[21] = second compound 3.16 µM, first compound 0.00949 µM
[22] = second compound 3.16 µM, first compound 0.03 µM
[23] = second compound 3.16 µM, first compound 0.0949 µM
[24] = second compound 3.16 µM, first compound 0.3 µM
[25] = second compound 10 µM, first compound 0.000949 µM
[26] = second compound 10 µM, first compound 0.003 µM
[27] = second compound 10 µM, first compound 0.00949 µM
[28] = second compound 10 µM, first compound 0.03 µM
[29] = second compound 10 µM, first compound 0.0949 µM
[30] = second compound 10 µM, first compound 0.3 µM
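Note: spheroids exposed to compounds for seven days.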

For CC(C)CC(NC(=O)C(Cc1ccccc1)NC(=O)c1cnccn1)B(O)O (stereo not given) + Cc1ccccc1N=Nc1ccc(NC(=O)c2ccnn2C)c(C)c1, which IC50 (second compound 0.1 µM) is on record?
The IC50 was 6.58 nM.

And the IC50 (second compound 0.316 µM)?
The IC50 was 7.08 nM.

And the IC50 (second compound 1 µM)?
The IC50 was 6.29 nM.

And the IC50 (second compound 3.16 µM)?
The IC50 was 6.14 nM.

And the IC50 (second compound 10 µM)?
Its IC50 is 3.21 nM.

What about the viability, T/C [1] of the same compound?
The viability, T/C was 96.7%.

What about the viability, T/C [2] of the same compound?
The viability, T/C was 105%.

What about the viability, T/C [3] of the same compound?
The viability, T/C was 26.3%.

And the viability, T/C [4]?
The viability, T/C was 1.3%.

What about the viability, T/C [5] of the same compound?
The viability, T/C was 0.26%.

What about the viability, T/C [6] of the same compound?
The viability, T/C was 0.15%.

What about the viability, T/C [7] of the same compound?
Its viability, T/C is 115%.

And the viability, T/C [8]?
The viability, T/C was 122%.

What about the viability, T/C [9] of the same compound?
The viability, T/C was 26.6%.

And the viability, T/C [10]?
Its viability, T/C is 1.13%.

What about the viability, T/C [11] of the same compound?
Its viability, T/C is 0.18%.

And the viability, T/C [12]?
The viability, T/C was 0.13%.

And the viability, T/C [13]?
Its viability, T/C is 111%.

What about the viability, T/C [14] of the same compound?
The viability, T/C was 101%.

And the viability, T/C [15]?
The viability, T/C was 21.8%.

And the viability, T/C [16]?
Its viability, T/C is 1.27%.

What about the viability, T/C [17] of the same compound?
Its viability, T/C is 0.5%.

What about the viability, T/C [18] of the same compound?
Its viability, T/C is 0.13%.

And the viability, T/C [19]?
The viability, T/C was 82%.

What about the viability, T/C [20] of the same compound?
The viability, T/C was 94.2%.

What about the viability, T/C [21] of the same compound?
The viability, T/C was 26.8%.

And the viability, T/C [22]?
The viability, T/C was 1.47%.

And the viability, T/C [23]?
The viability, T/C was 0.16%.

What about the viability, T/C [24] of the same compound?
Its viability, T/C is 0.14%.

And the viability, T/C [25]?
The viability, T/C was 58%.

What about the viability, T/C [26] of the same compound?
The viability, T/C was 50.3%.

And the viability, T/C [27]?
The viability, T/C was 25.8%.

What about the viability, T/C [28] of the same compound?
The viability, T/C was 1.46%.

And the viability, T/C [29]?
The viability, T/C was 0.3%.

What about the viability, T/C [30] of the same compound?
Its viability, T/C is 0.18%.

How did the IC50 (second compound 0.1 µM) turn out when CCc1c2c(nc3ccc(O)cc13)-c1cc3c(c(=O)n1C2)COC(=O)[C@]3(O)CC + Cc1ccccc1N=Nc1ccc(NC(=O)c2ccnn2C)c(C)c1 was run?
The IC50 was under 0.949 nM.

And the IC50 (second compound 0.316 µM)?
Its IC50 is under 0.949 nM.

What about the IC50 (second compound 1 µM) of the same compound?
The IC50 was under 0.949 nM.

What about the IC50 (second compound 3.16 µM) of the same compound?
The IC50 was under 0.949 nM.

What about the IC50 (second compound 10 µM) of the same compound?
Its IC50 is under 0.949 nM.

What about the viability, T/C [1] of the same compound?
The viability, T/C was 15.3%.

What about the viability, T/C [2] of the same compound?
Its viability, T/C is 7.41%.

What about the viability, T/C [3] of the same compound?
The viability, T/C was 6.43%.

And the viability, T/C [4]?
Its viability, T/C is 4.14%.

And the viability, T/C [5]?
Its viability, T/C is 1.83%.

What about the viability, T/C [6] of the same compound?
Its viability, T/C is 1.03%.

What about the viability, T/C [7] of the same compound?
Its viability, T/C is 17.7%.

What about the viability, T/C [8] of the same compound?
The viability, T/C was 7.53%.

And the viability, T/C [9]?
Its viability, T/C is 5.71%.

And the viability, T/C [10]?
The viability, T/C was 3.77%.

What about the viability, T/C [11] of the same compound?
The viability, T/C was 1.78%.

And the viability, T/C [12]?
Its viability, T/C is 1.57%.

What about the viability, T/C [13] of the same compound?
The viability, T/C was 16.8%.

And the viability, T/C [14]?
The viability, T/C was 6.58%.

What about the viability, T/C [15] of the same compound?
Its viability, T/C is 5.11%.

What about the viability, T/C [16] of the same compound?
Its viability, T/C is 4.84%.

What about the viability, T/C [17] of the same compound?
The viability, T/C was 2.6%.

What about the viability, T/C [18] of the same compound?
Its viability, T/C is 1.23%.

And the viability, T/C [19]?
The viability, T/C was 17.2%.

And the viability, T/C [20]?
Its viability, T/C is 6.69%.

What about the viability, T/C [21] of the same compound?
The viability, T/C was 5.43%.

And the viability, T/C [22]?
The viability, T/C was 4.44%.

What about the viability, T/C [23] of the same compound?
Its viability, T/C is 2.64%.

And the viability, T/C [24]?
Its viability, T/C is 1.47%.

And the viability, T/C [25]?
The viability, T/C was 14.9%.

And the viability, T/C [26]?
The viability, T/C was 7.42%.

And the viability, T/C [27]?
Its viability, T/C is 5.87%.

And the viability, T/C [28]?
The viability, T/C was 3.54%.

And the viability, T/C [29]?
Its viability, T/C is 2.17%.

What about the viability, T/C [30] of the same compound?
Its viability, T/C is 1.29%.

What does the source list for Nc1ccccc1NC(=O)c1ccc(CNC(=O)OCc2cccnc2)cc1 + Cc1ccccc1N=Nc1ccc(NC(=O)c2ccnn2C)c(C)c1?
IC50 (second compound 0.1 µM): 763 nM; IC50 (second compound 0.316 µM): 764 nM; IC50 (second compound 1 µM): 958 nM; IC50 (second compound 3.16 µM): 713 nM; IC50 (second compound 10 µM): < 31.6 nM; viability, T/C (second compound 0.1 µM, first compound 0.0316 µM): 95.5%; viability, T/C (second compound 0.1 µM, first compound 0.1 µM): 89.5%; viability, T/C (second compound 0.1 µM, first compound 0.316 µM): 64.3%; viability, T/C (second compound 0.1 µM, first compound 1 µM): 43.7%; viability, T/C (second compound 0.1 µM, first compound 3.16 µM): 28.3%; viability, T/C (second compound 0.1 µM, first compound 10 µM): 11.1%; viability, T/C (second compound 0.316 µM, first compound 0.0316 µM): 92%; viability, T/C (second compound 0.316 µM, first compound 0.1 µM): 77.7%; viability, T/C (second compound 0.316 µM, first compound 0.316 µM): 68.8%; viability, T/C (second compound 0.316 µM, first compound 1 µM): 43.1%; viability, T/C (second compound 0.316 µM, first compound 3.16 µM): 26.5%; viability, T/C (second compound 0.316 µM, first compound 10 µM): 10.7%; viability, T/C (second compound 1 µM, first compound 0.0316 µM): 97.7%; viability, T/C (second compound 1 µM, first compound 0.1 µM): 91.5%; viability, T/C (second compound 1 µM, first compound 0.316 µM): 69.5%; viability, T/C (second compound 1 µM, first compound 1 µM): 48.7%; viability, T/C (second compound 1 µM, first compound 3.16 µM): 29.2%; viability, T/C (second compound 1 µM, first compound 10 µM): 11.2%; viability, T/C (second compound 3.16 µM, first compound 0.0316 µM): 75.2%; viability, T/C (second compound 3.16 µM, first compound 0.1 µM): 69.7%; viability, T/C (second compound 3.16 µM, first compound 0.316 µM): 62.3%; viability, T/C (second compound 3.16 µM, first compound 1 µM): 44.3%; viability, T/C (second compound 3.16 µM, first compound 3.16 µM): 27.7%; viability, T/C (second compound 3.16 µM, first compound 10 µM): 12.4%; viability, T/C (second compound 10 µM, first compound 0.0316 µM): 49.4%; viability, T/C (second compound 10 µM, first compound 0.1 µM): 45.1%; viability, T/C (second compound 10 µM, first compound 0.316 µM): 44.5%; viability, T/C (second compound 10 µM, first compound 1 µM): 32.5%; viability, T/C (second compound 10 µM, first compound 3.16 µM): 23.5%; viability, T/C (second compound 10 µM, first compound 10 µM): 12.8%
